Test results published in US11541132B2, “Radiolabeled compounds” (Hoffmann-La Roche Inc., priority 2017, dated 2023).

Columns and labels:
[1] = target: T1, native Aβ aggregates in human AD brain tissue sections (Homo sapiens, UniProt P05067); experiment: Aβ in vitro displacement assay (selectivity counterscreen, [3H]Example 3 autoradiography); assay type: binding; conditions: 1 μM compound; 3 nM [3H]Example 3; human AD brain sections; read-out: sel. counterscreen PCT_INHIB AD @ 1 μM (% displacement of [3H]Example 3)
T1 construct: native Aβ aggregates in human AD brain tissue samples; from tissue; host or cells: human AD brain tissue sections
T1 sequence (P05067 672-713 limits assumed): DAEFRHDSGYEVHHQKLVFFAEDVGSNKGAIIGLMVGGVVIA

[2] = target: T2, native aSyn aggregates in A30P transgenic mouse brain sections (Homo sapiens, UniProt P37840, A30P); experiment: aSyn in vitro displacement assay ([3H]Example-3 autoradiography); assay type: binding, mutant human aSyn gene); conditions: 1 μM compound; 3 nM [3H]Example-3; A30P transgenic mouse brain sections; read-out: PCT_INHIB A30P @ 1 μM (% displacement of [3H]Example-3)
T2 construct: from tissue; host or cells: brain sections (midbrain and pons as ROI) of A30P transgenic mice, line B6.D2-Tg(Thy1-SNCA*30P)31Pjk

Row | Compound | inhibition at 1 µM [1] [%] | inhibition at 1 µM [2] [%]
1 | N#Cc1ccc(N2CCN(c3ccc(NC(=O)c4ccc(N5CCOCC5)cc4)cc3)CC2)cc1 [Example 92, N-(4-(4-(4-Cyanophenyl)piperazin-1-yl)phenyl)-4-morpholinobenzamide] | 86 | 96
2 | COc1cccc(C(=O)Nc2ccc(N3CCN(c4ccc(C#N)cc4)CC3)cc2)n1 [Example 93, N-(4-(4-(4-Cyanophenyl)piperazin-1-yl)phenyl)-6-methoxypicolinamide] | 89 | 99
3 | O=C(Nc1ccc(N2CCN(c3cccs3)CC2)cc1)c1ccc(N2CCOCC2)cc1 [Example 94, 4-Morpholino-N-(4-(4-(thiophen-2-yl)piperazin-1-yl)phenyl)benzamide] | 93 | 81
4 | COc1ccc(C(=O)Nc2ccc(N3CCN(c4ccc(C#N)cn4)CC3)cn2)cc1 [Example 95, N-(5-(4-(5-Cyanopyridin-2-yl)piperazin-1-yl)pyridin-2-yl)-4-methoxybenzamide] | 95 | 83
5 | COc1ccc(C(=O)Nc2ccc(N3CCN(c4ccc(C#N)cc4)CC3)cn2)cc1 [Example 96, N-(5-(4-(4-Cyanophenyl)piperazin-1-yl)pyridin-2-yl)-4-methoxybenzamide] | 66 | 84
6 | COc1ccc(C(=O)Nc2cnc(N3CCN(c4ccc(C#N)cc4)CC3)nc2)cc1 [Example 97, N-(2-(4-(4-Cyanophenyl)piperazin-1-yl)pyrimidin-5-yl)-4-methoxybenzamide] | 106 | 97
7 | COc1ccc(C(=O)Nc2cnc(N3CCN(c4ccc(C#N)cn4)CC3)nc2)cc1 [Example 98, N-(2-(4-(5-Cyanopyridin-2-yl)piperazin-1-yl)pyrimidin-5-yl)-4-methoxybenzamide] | 86 | 86
8 | N#Cc1ccc(N2CCN(c3ncc(NC(=O)c4ccc(N5CCOCC5)cc4)cn3)CC2)nc1 [Example 99, N-(2-(4-(5-Cyanopyridin-2-yl)piperazin-1-yl)pyrimidin-5-yl)-4-morpholinobenzamide] | 86 | 82
9 | COc1ccc(C(=O)Nc2ccc(N3CCN(c4cccc(C#N)n4)CC3)cc2)cc1 [Example 100, N-[4-[4-(6-Cyano-2-pyridyl)piperazin-1-yl]phenyl]-4-methoxy-benzamide] | 85 | 86
10 | COc1ccc(C(=O)Nc2ccc(N3CCN(c4ccccc4)CC3)cc2)cc1 [Example 101, 4-Methoxy-N-[4-(4-phenylpiperazin-1-yl)phenyl]benzamide] | 99 | 95
11 | COc1ccc(C(=O)Nc2ccc(N3CCN(c4cc(C)ccn4)CC3)cc2)cc1 [Example 102, 4-Methoxy-N-[4-[4-(4-methyl-2-pyridyl)piperazin-1-yl]phenyl]benzamide] | 88 | 89
12 | COc1ccc(C(=O)Nc2ccc(N3CCN(c4cccc(C#N)c4)CC3)cc2)cc1 [Example 103, N-[4-[4-(3-Cyanophenyl)piperazin-1-yl]phenyl]-4-methoxy-benzamide] | 99 | 100
13 | COc1ccc(C(=O)Nc2ccc(N3CCN(c4cccc(F)c4)CC3)cc2)cc1 [Example 104, N-[4-[4-(3-Fluorophenyl)piperazin-1-yl]phenyl]-4-methoxy-benzamide] | 100 | 98
14 | COc1ccc(C(=O)Nc2ccc(N3CCN(c4ccc(F)cc4)CC3)cc2)cc1 [Example 105, N-[4-[4-(4-Fluorophenyl)piperazin-1-yl]phenyl]-4-methoxy-benzamide] | 98 | 100
15 | COc1ccc(C(=O)Nc2ccc(N3CCN(c4ccccn4)CC3)c(F)c2)cc1 [Example 106, N-[3-Fluoro-4-[4-(2-pyridyl)piperazin-1-yl]phenyl]-4-methoxy-benzamide] | 88 | 82
16 | COc1ccc(C(=O)Nc2ccc(N3CCN(c4ccc(C#N)cn4)CC3)c(F)c2)cc1 [Example 107, N-[4-[4-(5-Cyano-2-pyridyl)piperazin-1-yl]-3-fluoro-phenyl]-4-methoxy-benzamide] | 96 | 96
17 | N#Cc1ccc(N2CCN(c3ccc(NC(=O)c4ccc(O)cc4)cc3)CC2)nc1 [Example 108, N-(4-(4-(5-cyanopyridin-2-yl)piperazin-1-yl)phenyl)-4-hydroxybenzamide] | 92 | 81
18 | COc1ccc(C(=O)Nc2ccc(N3CCN(c4ccc(C)cc4)CC3)cc2)cc1 [Example 109, 4-Methoxy-N-[4-[4-(p-tolyl)piperazin-1-yl]phenyl]benzamide] | 97 | 96

Row | Compound | inhibition at 1 µM [1] [%] | inhibition at 1 µM [2] [%]
19 | COc1ccc(C(=O)Nc2ccc(N3CCN(c4ccc(OC)cc4)CC3)cc2)cc1 [Example 110, 4-Methoxy-N-[4-[4-(4-methoxyphenyl)piperazin-1-yl]phenyl]benzamide] | 99 | 99
20 | COc1ccc(C(=O)Nc2ccc(N3CCN(c4ccc(S(C)(=O)=O)cc4)CC3)cc2)cc1 [Example 111, 4-Methoxy-N-[4-[4-(4-methylsulfonylphenyl)piperazin-1-yl]phenyl]benzamide] | 92 | 94
21 | COc1ccc(C(=O)Nc2ccc(N3CCN(c4ccc(C#N)cc4)CC3)c(C)c2)cc1 [Example 112, N-[4-[4-(4-Cyanophenyl)piperazin-1-yl]-3-methyl-phenyl]-4-methoxy-benzamide] | 74 | 87
22 | COc1ccc(C(=O)Nc2ccc(N3CCN(c4ccc(C#N)cn4)CC3)c(C)c2)cc1 [Example 113, N-[4-[4-(5-Cyano-2-pyridyl)piperazin-1-yl]-3-methyl-phenyl]-4-methoxy-benzamide] | 79 | 87
23 | COc1ccc(C(=O)Nc2ccc(N3CCN(c4ccc(C#N)cc4)CC3)cc2)c(F)c1 [Example 114, N-[4-[4-(4-Cyanophenyl)piperazin-1-yl]phenyl]-2-fluoro-4-methoxy-benzamide] | 92 | 91
24 | COc1ccc(C(=O)Nc2ccc(N3CCN(c4ccc(C#N)cn4)CC3)cc2)c(F)c1 [Example 115, N-[4-[4-(5-Cyano-2-pyridyl)piperazin-1-yl]phenyl]-2-fluoro-4-methoxy-benzamide] | 90 | 87
25 | N#Cc1ccc(N2CCN(c3ccc(NC(=O)c4ccc(OCCF)cc4)cc3)CC2)nc1 [Example 116, N-[4-[4-(5-Cyano-2-pyridyl)piperazin-1-yl]phenyl]-4-(2-fluoroethoxy)benzamide] | 85 | 81
26 | N#Cc1ccc(N2CCN(c3ccc(NC(=O)c4ccc(OCCF)cc4)cc3)CC2)cc1 [Example 117, N-[4-[4-(4-Cyanophenyl)piperazin-1-yl]phenyl]-4-(2-fluoroethoxy)benzamide] | 88 | 90
27 | O=C(Nc1ccc(N2CCN(c3ccccn3)CC2)cc1)c1ccc(OCCF)cc1 [Example 118, 4-(2-Fluoroethoxy)-N-[4-[4-(2-pyridyl)piperazin-1-yl]phenyl]benzamide] | 92 | 88
28 | O=C(Nc1ccc(N2CCN(c3nccs3)CC2)cc1)c1ccc(OCCF)cc1 [Example 119, 4-(2-Fluoroethoxy)-N-[4-(4-thiazol-2-ylpiperazin-1-yl)phenyl]benzamide] | 89 | 83
29 | O=C(Nc1ccc(N2CCN(c3nccs3)CC2)cc1)c1ccc(OCCOCCOCCF)cc1 [Example 120, 4-[2-[2-(2-Fluoroethoxy)ethoxy]ethoxy]-N-[4-(4-thiazol-2-ylpiperazin-1-yl)phenyl]benzamide] | 93 | 81
30 | N#Cc1ccc(N2CCN(c3ccc(NC(=O)c4ccc(OCCOCCF)cc4)cc3)CC2)nc1 [Example 121, N-(4-(4-(5-cyanopyridin-2-yl)piperazin-1-yl)phenyl)-4-(2-(2-fluoroethoxy)ethoxy)benzamide] | 86 | 87
31 | N#Cc1ccc(N2CCN(c3ccc(NC(=O)c4ccc(OCCOCCF)cc4)cc3)CC2)cc1 [Example 122, N-(4-(4-(4-cyanophenyl)piperazin-1-yl)phenyl)-4-(2-(2-fluoroethoxy)ethoxy) benzamide] | 85 | 88
32 | N#Cc1ccc(N2CCN(c3ccc(NC(=O)c4ccc(OCCOCCOCCF)cc4)cc3)CC2)cc1 [Example 123, N-[4-[4-(4-Cyanophenyl)piperazin-1-yl]phenyl]-4-[2-[2-(2-fluoroethoxy)ethoxy]ethoxy]benzamide] | 95 | 80
33 | COc1ccc(C(=O)Nc2ccc(N3C[C@H]4CN(c5ccccn5)C[C@@H]4C3)cc2)cc1 [Example 132, 4-Methoxy-N-(4-((3aS,6aS)-5-(pyridin-2-yl)hexahydropyrrolo[3,4-c]pyrrol-2(1H)-yl)phenyl)benzamide] | 20 | 82
34 | COc1ccc(C(=O)Nc2ccc(N3C[C@@H]4CN(c5ccccn5)C[C@H]4C3)cc2)cc1 [Example 133, 4-Methoxy-N-(4-((3aR,6aR)-5-(pyridin-2-yl)hexahydropyrrolo[3,4-c]pyrrol-2(1H)-yl)phenyl)benzamide] | 84 | 85
35 | O=C(Nc1ccc(N2CCN(c3cccnc3)CC2)cc1)c1ccc(OCF)cc1 [Example 134, 4-(fluoromethoxy)-N-(4-(4-(pyridin-3-yl)piperazin-1-yl)phenyl)benzamide] | 93 | 94
